Values of other authors, collected in patent US20090123956A1, “Measurement of the oxidants-antioxidants balance in liquids” (Samsung Electronics Co., Ltd., priority 2006, published 2009).

Conditions: change in absorbance at 450 nm (reference 620 or 570 nm) at equivalent molar concentration, uric acid = 1

| SMILES | relative activity in compare with uric acid |
| --- | --- |
| N[C@@H](CCC(=O)N[C@@H](CS)C(=O)NCC(=O)O)C(=O)O [GSH] | about 1 |
| Cc1c(C)c2c(c(C)c1O)CCC(C)(C(=O)O)O2 (stereo not drawn) [Trolox] | about 1 |
| O=C1O[C@H]([C@@H](O)CO)C(O)=C1O [vitamin C] | about 1 |
